The target in test [1] is T1, SARS-CoV-2 PLpro (nsp3 1564–1878) (Severe acute respiratory syndrome coronavirus 2, UniProt P0DTD1). Put plainly: biochemical. The arrangement: FRET-quenched peptide (Pro3) cleavage by PLpro, 10 min pre-incubation, slope over 20 min, normalised to no-compound control. Particulars: low concentration screen, read-out: % of control remaining.
In test [2] the target is T1, SARS-CoV-2 PLpro (nsp3 1564–1878). Put plainly: biochemical. On the set-up: FRET-quenched peptide (Pro3) cleavage by PLpro, 10 min pre-incubation, slope over 20 min, normalised to no-compound control. Particulars: high concentration screen, read-out: % of control remaining.

The text below walks through data of PMC8286840, “Identifying SARS-CoV-2 antiviral compounds by screening for small molecule inhibitors of Nsp3 papain-like protease” (Biochemical Journal, 2021).

The structures appear in SMILES notation. Structures can show the parent of a compound that is named as a salt. Where two headings read alike, the source gives them in different places.

With `CC(CN(C)C)CN1c2ccccc2Sc2ccc(C#N)cc21` (stereo not drawn) [Cyamemazine], the remaining activity at 1.25 µM in test [1] (Well no.=5789) came to 102%. Moreover, the remaining activity at 3.75 µM in test [2] (Well no.=5789) stood at 105%.
Turning to `Nc1nc2c(ncn2[C@@H]2O[C@@H]3COP(=O)(O)O[C@H]4[C@@H](O)[C@H](n5cnc6c(=O)[nH]c(N)nc65)O[C@@H]4COP(=O)(O)O[C@H]3[C@H]2O)c(=O)[nH]1` [Cyclic-di-GMP], the remaining activity at 1.25 µM worked out at 103% in test [1] (Well no.=7774) and 101% in test [1] (Well no.=8405). The figures for the remaining activity at 3.75 µM in test [2] (Well no.=7774) and in test [2] (Well no.=8405) were 102% and 100%, respectively.
Take `NCCCC[C@@H]1NC(=O)[C@@H](Cc2ccccc2)NC(=O)[C@H](CC(=O)O)NC(=O)CNC(=O)[C@H](CCCN=C(N)N)NC1=O` [Cyclo(-RGDfK)]: in test [1] (Well no.=8410), the remaining activity at 1.25 µM came out at 96.3%. Further, the remaining activity at 3.75 µM in test [2] (Well no.=8410) was 96.9%.
On to `NCCCC[C@@H]1NC(=O)[C@@H](Cc2ccc(O)cc2)NC(=O)[C@H](CC(=O)O)NC(=O)CNC(=O)[C@H](CCCN=C(N)N)NC1=O` [Cyclo(RGDyK) trifluoroacetate], for which the remaining activity at 1.25 µM in test [1] (Well no.=8698) came out at 101%. The remaining activity at 3.75 µM in test [2] (Well no.=8698) came out at 97.8%.
In the case of `O=C1N[C@@H](Cc2cnc[nH]2)C(=O)N2CCC[C@@H]12` [Cyclo(his-pro)], in test [1] (Well no.=6245), the remaining activity at 1.25 µM was determined as 106%. The remaining activity at 3.75 µM in test [2] (Well no.=6245) came to 105%.
Take `CN(C)CCC=C1c2ccccc2C=Cc2ccccc21` [Cyclobenzaprine (hydrochloride)]: the remaining activity at 1.25 µM in test [1] (Well no.=6284) came to 106%. The remaining activity at 3.75 µM in test [2] (Well no.=6284) stood at 105%.
Turning to `CN(C)CCC=C1c2ccccc2C=Cc2ccccc21` [Cyclobenzaprine hydrochloride], in test [1] (Well no.=320), the remaining activity at 1.25 µM came out at 92.5%. In addition, the remaining activity at 3.75 µM in test [2] (Well no.=320) came to 93.2%.
In the case of `N=c1ccn2c(n1)O[C@H]1[C@H](O)[C@@H](CO)O[C@H]12` [Cyclocytidine], the remaining activity at 1.25 µM in test [1] (Well no.=1936) was 96.5%. In test [2] (Well no.=1936), the remaining activity at 3.75 µM amounted to 103%.
Take `C[C@@H]1C[C@@H]([C@H](O)CC2CC(=O)NC(=O)C2)C(=O)[C@@H](C)C1` [Cycloheximide]: the remaining activity at 1.25 µM in test [1] (Well no.=3179) was determined as 98.2%. Moreover, the remaining activity at 3.75 µM in test [2] (Well no.=3179) amounted to 98.5%.
For the molecule `CC1=C2C[C@H]3[C@@H](CC=C4C[C@@H](O)CC[C@@]43C)[C@@H]2CC[C@]12O[C@@H]1C[C@H](C)CN[C@H]1[C@H]2C` [Cyclopamine], in test [1] (Well no.=3181), the remaining activity at 1.25 µM was 107%. The remaining activity at 3.75 µM in test [2] (Well no.=3181) was 106%.
On to `CC(=O)C1=C(O)[C@@H]2[C@H]3c4c[nH]c5cccc(c45)C[C@H]3C(C)(C)N2C1=O` [Cyclopiazonic acid], for which the remaining activity at 1.25 µM in test [1] (Well no.=3183) was 102%. Further, the remaining activity at 3.75 µM in test [2] (Well no.=3183) amounted to 104%.
For `NS(=O)(=O)c1cc2c(cc1Cl)NC(C1CC3C=CC1C3)NS2(=O)=O` (stereo not drawn) [Cyclothiazide], the remaining activity at 1.25 µM in test [1] (Well no.=387) turned out to be 104%. For the same molecule, the remaining activity at 3.75 µM in test [2] (Well no.=387) was determined as 101%.
`CN1CCC(=C2c3ccccc3C=Cc3ccccc32)CC1` [Cyproheptadine (hydrochloride sesquihydrate)]: in test [1] (Well no.=6185), the remaining activity at 1.25 µM is 97.8%. Further, the remaining activity at 3.75 µM in test [2] (Well no.=6185) came out at 95.9%.
Take `CN1CCC(=C2c3ccccc3C=Cc3ccccc32)CC1` [Cyproheptadine (hydrochloride)]: the remaining activity at 1.25 µM in test [1] (Well no.=6994) worked out at 97.6%. In addition, the remaining activity at 3.75 µM in test [2] (Well no.=6994) is 99.7%.
For `CN1CCC(=C2c3ccccc3C=Cc3ccccc32)CC1` [Cyproheptadine hydrochloride], the remaining activity at 1.25 µM in test [1] (Well no.=38) was found to be 93.9%. Also, the remaining activity at 3.75 µM in test [2] (Well no.=38) is 91.5%.
For the molecule `CN1CCC(=C2c3ccccc3C=Cc3ccccc32)CC1` [Cyproheptadine], the remaining activity at 1.25 µM in test [1] (Well no.=2300) is 97.2%. In addition, the remaining activity at 3.75 µM in test [2] (Well no.=2300) was 98.2%.
On to `CC(=O)O[C@]1(C(C)=O)CC[C@H]2[C@@H]3C=C(Cl)C4=CC(=O)[C@@H]5C[C@@H]5[C@]4(C)[C@H]3CC[C@@]21C` [Cyproterone acetate], for which the remaining activity at 1.25 µM came out at 95.3% in test [1] (Well no.=316) and 99.5% in test [1] (Well no.=1934). In addition, the remaining activity at 3.75 µM in test [2] (Well no.=316) was 95.7%; in test [2] (Well no.=1934) it was 99.8%.
Turning to `NCCSSCCN` [Cystamine dihydrochloride], the remaining activity at 1.25 µM in test [1] (Well no.=280) turned out to be 97%. For the same molecule, the remaining activity at 3.75 µM in test [2] (Well no.=280) came to 99.9%.
As for `NCCS` [Cysteamine hydrochloride], the remaining activity at 1.25 µM in test [1] (Well no.=884) came out at 105%. In addition, in test [2] (Well no.=884), the remaining activity at 3.75 µM was 103%.
Turning to `Nc1ccn([C@@H]2O[C@H](CO)[C@@H](O)[C@@H]2O)c(=O)n1` [Cytarabine], the remaining activity at 1.25 µM was 99.8% in test [1] (Well no.=1938) and 108% in test [1] (Well no.=8847). In addition, the remaining activity at 3.75 µM came out at 98.4% in test [2] (Well no.=1938) and 105% in test [2] (Well no.=8847).
`Nc1ccn([C@@H]2O[C@H](CO)[C@@H](O)[C@H]2O)c(=O)n1` [Cytidine]: the remaining activity at 1.25 µM in test [1] (Well no.=5054) stood at 97.5%; in test [1] (Well no.=6205) it was 108%; in test [1] (Well no.=8014) it was 98.6%. For the same molecule, the results for the remaining activity at 3.75 µM in test [2] (Well no.=5054), in test [2] (Well no.=6205) and in test [2] (Well no.=8014) were 100%, 110% and 97.3%, respectively.
As for `C=C1[C@@H](C)[C@H]2[C@H](Cc3ccccc3)NC(=O)[C@]23OC(=O)/C=C/[C@H](O)CCC[C@@H](C)C/C=C/[C@H]3[C@@H]1O` [Cytochalasin B], the remaining activity at 1.25 µM in test [1] (Well no.=3189) was found to be 98%. For the same molecule, the remaining activity at 3.75 µM in test [2] (Well no.=3189) came out at 98.1%.
Take `C=C1[C@@H](C)[C@H]2[C@H](Cc3ccccc3)NC(=O)[C@]23[C@H](OC(C)=O)/C=C/[C@@](C)(O)C(=O)[C@@H](C)C/C=C/[C@H]3[C@@H]1O` [Cytochalasin D]: the remaining activity at 1.25 µM in test [1] (Well no.=3581) was 98.2%. The remaining activity at 3.75 µM in test [2] (Well no.=3581) came to 99.7%.
Regarding `C[C@H]1C/C=C/[C@H]2[C@@H]3O[C@]3(C)[C@@H](C)[C@H]3[C@H](Cc4ccccc4)NC(=O)[C@]32OC(=O)O/C=C/[C@@](C)(O)C1=O` [Cytochalasin E], the remaining activity at 1.25 µM in test [1] (Well no.=3627) stood at 101%. In addition, the remaining activity at 3.75 µM in test [2] (Well no.=3627) worked out at 103%.
For `Nc1ccn([C@@H]2O[C@H](CO)[C@@H](O)[C@@H]2O)c(=O)n1` [Cytosine-1-beta-D-arabinofuranoside hydrochloride], the remaining activity at 1.25 µM in test [1] (Well no.=374) was 94.2%. Besides, the remaining activity at 3.75 µM in test [2] (Well no.=374) worked out at 89.3%.
On to `Nc1cc[nH]c(=O)n1` [Cytosine], for which, in test [1] (Well no.=6579), the remaining activity at 1.25 µM came out at 101%. Moreover, the remaining activity at 3.75 µM in test [2] (Well no.=6579) was 103%.
For the molecule `CCCCCCCC(=O)c1c(O)cc(O)cc1CC(=O)OCC` [Cytosporone B], the remaining activity at 1.25 µM in test [1] (Well no.=5993) turned out to be 98.3%. Besides, in test [2] (Well no.=5993), the remaining activity at 3.75 µM turned out to be 98.7%.
For the molecule `N[C@H](CCCCCP(=O)(O)O)C(=O)O` [D(-)-2-Amino-7-phosphonoheptanoic acid], the remaining activity at 1.25 µM in test [1] (Well no.=352) worked out at 96.5%. The remaining activity at 3.75 µM in test [2] (Well no.=352) stood at 98.1%.
